What all share (assay type): cell-based
Assay [1] concerns the target T1, TRPA1 (Homo sapiens, UniProt O75762).
T1 construct: Human TRPA1 (NM_007332) expressed in HEK293T cells
Nature of the assay: excised-patch single-channel recording and calcium imaging, […].

Assay [2] has as its target T1, TRPA1. Nature of the assay: whole-cell and excised-patch (inside-out/outside-out) patch clamp, calcium imaging. (Patch clamp records ionic current or voltage across a cell membrane.)
In assay [3] the target is T2, TRPA1 (Homo sapiens, UniProt O75762, C641A).
T2 construct: hTRPA1 mutant expressed in HEK293 cells
T2 sequence (O75762 whole entry C641A): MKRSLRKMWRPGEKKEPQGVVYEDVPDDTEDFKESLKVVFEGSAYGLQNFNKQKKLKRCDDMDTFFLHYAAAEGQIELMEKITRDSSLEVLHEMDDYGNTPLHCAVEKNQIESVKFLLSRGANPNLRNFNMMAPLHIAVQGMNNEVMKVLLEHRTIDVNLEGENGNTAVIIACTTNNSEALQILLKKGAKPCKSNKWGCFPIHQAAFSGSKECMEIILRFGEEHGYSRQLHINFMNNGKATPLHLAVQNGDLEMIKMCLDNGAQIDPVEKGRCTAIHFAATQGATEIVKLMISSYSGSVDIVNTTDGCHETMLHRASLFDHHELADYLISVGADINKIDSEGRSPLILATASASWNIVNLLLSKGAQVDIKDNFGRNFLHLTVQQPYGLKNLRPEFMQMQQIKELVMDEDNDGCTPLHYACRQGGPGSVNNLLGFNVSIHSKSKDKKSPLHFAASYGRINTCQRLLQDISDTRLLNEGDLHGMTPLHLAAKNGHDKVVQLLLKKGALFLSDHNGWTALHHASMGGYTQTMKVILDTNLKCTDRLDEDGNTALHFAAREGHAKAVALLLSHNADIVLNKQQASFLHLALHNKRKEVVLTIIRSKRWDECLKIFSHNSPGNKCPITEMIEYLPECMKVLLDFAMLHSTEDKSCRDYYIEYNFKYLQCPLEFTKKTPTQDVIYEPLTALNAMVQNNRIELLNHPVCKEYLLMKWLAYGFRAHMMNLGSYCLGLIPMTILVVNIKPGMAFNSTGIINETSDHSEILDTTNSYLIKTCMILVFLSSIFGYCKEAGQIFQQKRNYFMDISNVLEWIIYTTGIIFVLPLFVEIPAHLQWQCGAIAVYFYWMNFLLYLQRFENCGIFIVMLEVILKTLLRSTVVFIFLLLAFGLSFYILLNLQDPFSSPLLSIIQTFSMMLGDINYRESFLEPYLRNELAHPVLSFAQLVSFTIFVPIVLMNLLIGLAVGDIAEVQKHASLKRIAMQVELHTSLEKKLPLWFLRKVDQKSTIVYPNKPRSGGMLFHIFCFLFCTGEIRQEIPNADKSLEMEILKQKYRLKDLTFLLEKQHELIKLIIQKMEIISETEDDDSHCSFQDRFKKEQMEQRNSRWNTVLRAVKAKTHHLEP
Kind of assay: whole-cell patch clamp dose-response.

T1 sequence (O75762 whole entry): as the sequence (O75762 whole entry C641A) above, with A641C counted along it

Consider `C=CCN=C=S` [AITC, allyl isothiocyanate], for which the “excised-patch single-channel recording and calcium imaging, 1 mM” value at TRPA1 [1] is “consistently observed in both configurations, mirroring the effects of AITC, a membrane-permeable TRPA1 agonist”. Take `CCCCCCCCCC(=O)CC(O)S(=O)(=O)O` (stereo not drawn) [SH, sodium houttuyfonate]: the EC50 (commonly the concentration at which the effect is half-maximal) at TRPA1 [2] came to 343 ± 12.5 µM; on TRPA1 [3], 432 ± 9.72 µM.

Values taken from article PMC12770358, “Molecular defense strategy of volatile organic compound-emitting plants (order Piperales) against herbivorous mammals” (Communications Biology, 2025).
